Assay results: patent US11078228B2, “Ectonucleotidase inhibitors and methods of use thereof” (Calithera Biosciences, Inc., priority 2018, dated 2021)
pIC50: −log10 of the molar value.

Each compound was assayed against recombinant CD73 (Homo sapiens (Human), UniProt P21589) (assay: Assay 2: Inhibition of the CD73 enzyme in vitro (0.05 nM CD73, 1 hour 37° C., Malachite Green)). Conditions: 0.05 nM CD73, 50 μM AMP, 1 hour at 37° C.
Type: biochemical
Method: For measurements of soluble CD73 enzyme activity, recombinant CD73 was obtained from R&D Systems, Cat. No. 5795-EN-010. […] Reactions were allowed to proceed for 1 hour at 37° C. before the addition of 100 μL Malachite Green (Cell Signaling Technology, Cat. No. 12776). After 5 minutes at room temperature, absorbance at 630 nm was determined on a microplate spectrophotometer. The concentration of inorganic phosphate was determined using a phosphate standard curve.

Chain of recombinant CD73 (P21589 27-547): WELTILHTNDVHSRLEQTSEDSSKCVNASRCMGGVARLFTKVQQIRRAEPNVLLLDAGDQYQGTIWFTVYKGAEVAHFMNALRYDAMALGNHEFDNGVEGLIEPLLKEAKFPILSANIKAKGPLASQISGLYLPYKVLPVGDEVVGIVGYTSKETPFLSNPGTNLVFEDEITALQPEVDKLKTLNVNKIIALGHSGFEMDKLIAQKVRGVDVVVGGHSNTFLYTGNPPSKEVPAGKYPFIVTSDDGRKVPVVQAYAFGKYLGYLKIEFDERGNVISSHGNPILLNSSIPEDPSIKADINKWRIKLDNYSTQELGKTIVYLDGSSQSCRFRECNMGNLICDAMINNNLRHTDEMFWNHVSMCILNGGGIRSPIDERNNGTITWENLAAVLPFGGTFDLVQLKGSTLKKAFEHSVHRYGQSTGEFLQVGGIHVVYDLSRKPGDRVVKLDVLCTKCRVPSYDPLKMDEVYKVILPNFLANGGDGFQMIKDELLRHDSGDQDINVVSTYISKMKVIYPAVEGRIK

Compound | pIC50
C#C[C@@]1(O)[C@@H](COC(Cc2ccccc2)(C(=O)O)C(=O)O)O[C@@H](n2cnc3c(N4CCC4CO)nc(Cl)nc32)[C@@H]1O (stereo partly drawn) [Example 42, 2-benzyl-2-(((2R,3S,4R,5R)-5-(2-chloro-6-(2-(hydroxymethyl)azetidin-1-yl)-9H-purin-9-yl)-3-ethynyl-3,4-dihydroxytetrahydrofuran-2-yl)methoxy)malonic acid] | 9.00
C#C[C@@]1(O)[C@@H](COC(Cc2ccccc2)(C(=O)O)C(=O)O)O[C@@H](n2cnc3c(NCC4CCC4)nc(Cl)nc32)[C@@H]1O [Example 45, 2-benzyl-2-(((2R,3S,4R,5R)-5-(2-chloro-6-((cyclobutylmethyl)amino)-9H-purin-9-yl)-3-ethynyl-3,4-dihydroxytetrahydrofuran-2-yl)methoxy)malonic acid] | 9.00
C#C[C@@]1(O)[C@@H](COC(Cc2ccc(-c3ccccc3)cc2)(C(=O)O)C(=O)O)O[C@@H](n2cnc3c(N)nc(Cl)nc32)[C@@H]1O [Example 53, 2-([1,1′-biphenyl]-4-ylmethyl)-2-(((2R,3S,4R,5R)-5-(6-amino-2-chloro-9H-purin-9-yl)-3-ethynyl-3,4-dihydroxytetrahydrofuran-2-yl)methoxy)malonic acid] | 9.52
C#C[C@@]1(O)[C@@H](COC(Cc2ccccc2)(C(=O)O)C(=O)O)O[C@@H](n2cnc3c(NCC(C)(C)O)nc(Cl)nc32)[C@@H]1O [Example 94, 2-benzyl-2-(((2R,3S,4R,5R)-5-(2-chloro-6-((2-hydroxy-2-methylpropyl)amino)-9H-purin-9-yl)-3-ethynyl-3,4-dihydroxytetrahydrofuran-2-yl)methoxy)malonic acid] | 8.30
C#C[C@@]1(O)[C@@H](COC(Cc2ccccc2)(C(=O)O)C(=O)O)O[C@@H](n2cnc3c(N4CC(O)C4)nc(Cl)nc32)[C@@H]1O [Example 41, 2-benzyl-2-(((2R,3S,4R,5R)-5-(2-chloro-6-(3-hydroxyazetidin-1-yl)-9H-purin-9-yl)-3-ethynyl-3,4-dihydroxytetrahydrofuran-2-yl)methoxy)malonic acid] | 9.22
C#C[C@@]1(O)[C@@H](COC(Cc2ccccc2)(C(=O)O)C(=O)O)O[C@@H](n2cnc3c(N[C@H]4CCc5ccccc54)nc(Cl)nc32)[C@@H]1O [Example 72, 2-benzyl-2-(((2R,3S,4R,5R)-5-(2-chloro-6-(((S)-2,3-dihydro-1H-inden-1-yl)amino)-9H-purin-9-yl)-3-ethynyl-3,4-dihydroxytetrahydrofuran-2-yl)methoxy)-malonic acid] | 8.52
C#C[C@@]1(O)[C@@H](COC(Cc2ccccc2)(C(=O)O)C(=O)O)O[C@@H](n2cnc3c(NC4CCOC4)nc(Cl)nc32)[C@@H]1O (stereo partly drawn) [Example 64, 2-benzyl-2-(((2R,3S,4R,5R)-5-(2-chloro-6-((tetrahydrofuran-3-yl)-amino)-9H-purin-9-yl)-3-ethynyl-3,4-dihydroxytetrahydrofuran-2-yl)methoxy)-malonic acid] | 8.52
C#C[C@@]1(O)[C@@H](COC(Cc2ccccc2)(C(=O)O)C(=O)O)O[C@@H](n2cnc3c(NC)nc(Cl)nc32)[C@@H]1O [Example 71, 2-benzyl-2-(((2R,3S,4R,5R)-5-(2-chloro-6-(methylamino)-9H-purin-9-yl)-3-ethynyl-3,4-dihydroxytetrahydrofuran-2-yl)methoxy)malonic acid] | 8.22
C#C[C@@]1(O)[C@@H](COC(Cc2ccccc2)(C(=O)O)C(=O)O)O[C@@H](n2cnc3c(NC[C@@H](C)O)nc(Cl)nc32)[C@@H]1O [Example 35, 2-benzyl-2-(((2R,3S,4R,5R)-5-(2-chloro-6-(((R)-2-hydroxypropyl)amino)-9H-purin-9-yl)-3-ethynyl-3,4-dihydroxytetrahydrofuran-2-yl)methoxy)malonic acid] | 8.40
C#C[C@@]1(O)[C@@H](COC(Cc2ccoc2)(C(=O)O)C(=O)O)O[C@@H](n2cnc3c(N)nc(Cl)nc32)[C@@H]1O [Compound 8, 2-(((2R,3S,4R,5R)-5-(6-amino-2-chloro-9H-purin-9-yl)-3-ethynyl-3,4-dihydroxytetrahydrofuran-2-yl)methoxy)-2-(furan-3-ylmethyl)malonic acid] | 8.70
C#C[C@@]1(O)[C@@H](COC(Cc2ccccc2)(C(=O)O)C(=O)O)O[C@@H](n2cnc3c(N[C@@H](C)CC)nc(Cl)nc32)[C@@H]1O [Example 74, 2-benzyl-2-(((2R,3S,4R,5R)-5-(6-((S)-sec-butylamino)-2-chloro-9H-purin-9-yl)-3-ethynyl-3,4-dihydroxytetrahydrofuran-2-yl)methoxy)malonic acid] | 8.70
C#C[C@@]1(O)[C@@H](COC(Cc2ccccc2)(C(=O)O)C(=O)O)O[C@@H](n2cnc3c(NCc4cccc(Cl)c4)nc(Cl)nc32)[C@@H]1O [Example 86, 2-benzyl-2-(((2R,3S,4R,5R)-5-(2-chloro-6-((3-chlorobenzyl)amino)-9H-purin-9-yl)-3-ethynyl-3,4-dihydroxytetrahydrofuran-2-yl)methoxy)malonic acid] | 9.00
C#C[C@@]1(O)[C@@H](COC(Cc2ccccc2)(C(=O)O)C(=O)O)O[C@@H](n2cnc3c(N(C)CC4CC4)nc(Cl)nc32)[C@@H]1O [Example 75, 2-benzyl-2-(((2R,3S,4R,5R)-5-(2-chloro-6-((cyclopropylmethyl)-(methyl)amino)-9H-purin-9-yl)-3-ethynyl-3,4-dihydroxytetrahydrofuran-2-yl)methoxy)malonic acid] | 9.22
C#C[C@@]1(O)[C@@H](COC(C)(C(=O)O)C(=O)O)O[C@@H](n2cnc3c(N)nc(Cl)nc32)[C@@H]1O [Example 17, 2-(((2R,3S,4R,5R)-5-(6-amino-2-chloro-9H-purin-9-yl)-3-ethynyl-3,4-dihydroxytetrahydrofuran-2-yl)methoxy)-2-methylmalonic acid] | 6.46
C#C[C@@]1(O)[C@@H](COC(Cc2ccccc2)(C(=O)O)C(=O)O)O[C@@H](n2cnc3c(NCc4ccccc4Cl)nc(Cl)nc32)[C@@H]1O [Example 77, 2-benzyl-2-(((2R,3S,4R,5R)-5-(2-chloro-6-((2-chlorobenzyl)amino)-9H-purin-9-yl)-3-ethynyl-3,4-dihydroxytetrahydrofuran-2-yl)methoxy)malonic acid] | 8.70

Second part, the compound after the results:

pIC50 | Compound
9.60 | C#C[C@@]1(O)[C@@H](COC(Cc2ccc(N3CCCN(C)C3=O)cc2)(C(=O)O)C(=O)O)O[C@@H](n2cnc3c(NC(C)C)nc(Cl)nc32)[C@@H]1O [Example 151, 2-(((2R,3S,4R,5R)-5-(2-chloro-6-(isopropylamino)-9H-purin-9-yl)-3-ethynyl-3,4-dihydroxytetrahydrofuran-2-yl)methoxy)-2-(4-(3-methyl-2-oxotetrahydropyrimidin-1(2H)-yl)benzyl)malonic acid]
6.97 | C#C[C@@]1(O)[C@@H](COC(Cc2ccccc2)(C(=O)O)C(=O)O)O[C@@H](n2cnc3c(N)nc(SCC)nc32)[C@@H]1O [Example 145, 2-(((2R,3S,4R,5R)-5-(6-amino-2-(ethylthio)-9H-purin-9-yl)-3-ethynyl-3,4-dihydroxytetrahydrofuran-2-yl)methoxy)-2-benzylmalonic acid]
8.22 | C#C[C@@]1(O)[C@@H](COC(Cc2ccccc2)(C(=O)O)C(=O)O)O[C@@H](n2cnc3c(N(CCO)C4CC4)nc(Cl)nc32)[C@@H]1O [Example 99, 2-benzyl-2-(((2R,3S,4R,5R)-5-(2-chloro-6-(cyclopropyl(2-hydroxyethyl)amino)-9H-purin-9-yl)-3-ethynyl-3,4-dihydroxytetrahydrofuran-2-yl)methoxy)malonic acid]
< 7.00 | C#C[C@@]1(O)[C@@H](COC(Cc2ccccc2)(C(=O)O)C(=O)O)O[C@@H](n2cnc3c(CCCC(=O)O)nc(Cl)nc32)[C@@H]1O [Example 163, 2-benzyl-2-(((2R,3S,4R,5R)-5-(6-(3-carboxypropyl)-2-chloro-9H-purin-9-yl)-3-ethynyl-3,4-dihydroxytetrahydrofuran-2-yl)methoxy)malonic acid]
7.02 | C#C[C@@]1(O)[C@@H](CO[C@@](Cc2ccccc2)(C(=O)O)c2cscn2)O[C@@H](n2cnc3c(NC(C)C)nc(Cl)nc32)[C@@H]1O (single isomer, unassigned) [Example 171]
9.43 | C#C[C@@]1(O)[C@@H](COC(Cc2ccc(N3CCCNC3=O)cc2)(C(=O)O)C(=O)O)O[C@@H](n2cnc3c(N)cc(Cl)nc32)[C@@H]1O [Example 157, 2-(((2R,3S,4R,5R)-5-(7-amino-5-chloro-3H-imidazo[4,5-b]pyridin-3-yl)-3-ethynyl-3,4-dihydroxytetrahydrofuran-2-yl)methoxy)-2-(4-(2-oxotetrahydropyrimidin-1(2H)-yl)benzyl)malonic acid]
6.77 | C#C[C@@]1(O)[C@@H](COC(Cc2ccccc2)(C(=O)O)C(=O)O)O[C@@H](n2cnc3c(N)nc(C(C)=O)nc32)[C@@H]1O [Example 127, 2-(((2R,3S,4R,5R)-5-(2-acetyl-6-amino-9H-purin-9-yl)-3-ethynyl-3,4-dihydroxytetrahydrofuran-2-yl)methoxy)-2-benzylmalonic acid]
9.82 | C#C[C@@]1(O)[C@@H](COC(Cc2ccc(N3CCCN(CCO)C3=O)cc2)(C(=O)O)C(=O)O)O[C@@H](n2cnc3c(NCC4CC4)nc(Cl)nc32)[C@@H]1O [Example 138, 2-(((2R,3S,4R,5R)-5-(2-chloro-6-((cyclopropylmethyl)amino)-9H-purin-9-yl)-3-ethynyl-3,4-dihydroxytetrahydrofuran-2-yl)methoxy)-2-(4-(3-(2-hydroxyethyl)-2-oxotetrahydropyrimidin-1 (2H)-yl)benzyl)malonic acid]
9.89 | C#C[C@@]1(O)[C@@H](COC(Cc2ccc(N3CCCN(CCO)C3=O)cc2)(C(=O)O)C(=O)O)O[C@@H](n2cnc3c(NC(C)C)nc(Cl)nc32)[C@@H]1O [Example 139, 2-(((2R,3S,4R,5R)-5-(2-chloro-6-(isopropylamino)-9H-purin-9-yl)-3-ethynyl-3,4-dihydroxytetrahydrofuran-2-yl)methoxy)-2-(4-(3-(2-hydroxyethyl)-2-oxotetrahydropyrimidin-1 (2H)-yl)benzyl)malonic acid]
